# Key:
# Assay in all cases: relative viability (nuclei count vs DMSO), 5 days (fraction); higher = more cells survive
# [1] = compound: CC1=C(C(=O)N2C=CSC2=N1)CCN3CCC(=C(C4=CC=CC=C4)C5=CC=C(C=C5)F)CC3 + CS(=O)(=O)CCNCc1ccc(-c2ccc3ncnc(Nc4ccc(OCc5cccc(F)c5)c(Cl)c4)c3c2)o1 [Lapatinib] (partner 2 µM)
# Summary of the method: (§1)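 Medians of duplicate plates are given as relative viability. That measure is the nuclei count in treated wells divided by the count in vehicle wells. Counts were taken on 4× images of lung cancer cell lines in 1536-well plates, 5 days after pin-tool dosing the day after seeding with one drug alone or a fixed anchor-drug dose plus five library-drug doses (not always all listed) in √10 steps.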
# [2] = compound: CC1=C(C(=O)N2C=CSC2=N1)CCN3CCC(=C(C4=CC=CC=C4)C5=CC=C(C=C5)F)CC3 + C[C@@H](Oc1cc(-c2cnn(C3CCNCC3)c2)cnc1N)c1c(Cl)ccc(F)c1Cl [Crizotinib] (partner 1 µM)
# Summary of the method: as §1
# [3] = compound: CC1=C(C(=O)N2C=CSC2=N1)CCN3CCC(=C(C4=CC=CC=C4)C5=CC=C(C=C5)F)CC3 + Cc1nc(Nc2ncc(C(=O)Nc3c(C)cccc3Cl)s2)cc(N2CCN(CCO)CC2)n1 [Dasatinib] (partner 0.075 µM)
# Summary of the method: as §1
# [4] = compound: CC1=C(C(=O)N2C=CSC2=N1)CCN3CCC(=C(C4=CC=CC=C4)C5=CC=C(C=C5)F)CC3 + Nc1nc2[nH]cc(CCc3ccc(C(=O)N[C@@H](CCC(=O)O)C(=O)O)cc3)c2c(=O)[nH]1 [Pemetrexed] (partner 0.2 µM)
# Summary of the method: as §1
Cell Line,relative viability ([1]; first compound 0.08 µM),relative viability ([1]; first compound 0.253 µM),relative viability ([1]; first compound 0.8 µM),relative viability ([1]; first compound 2.53 µM),relative viability ([1]; first compound 8 µM),relative viability ([2]; first compound 0.08 µM),relative viability ([2]; first compound 0.253 µM),relative viability ([2]; first compound 0.8 µM),relative viability ([2]; first compound 2.53 µM),relative viability ([2]; first compound 8 µM),relative viability ([3]; first compound 0.08 µM),relative viability ([3]; first compound 0.253 µM),relative viability ([3]; first compound 0.8 µM),relative viability ([3]; first compound 2.53 µM),relative viability ([3]; first compound 8 µM),relative viability ([4]; first compound 0.08 µM),relative viability ([4]; first compound 0.8 µM),relative viability ([4]; first compound 2.53 µM),relative viability ([4]; first compound 8 µM),relative viability ([4]; first compound 0.253 µM)
UMC-11,0.999,0.745,0.86,1.21,0.821,0.636,0.597,0.619,0.48,0.839,0.526,0.422,0.525,0.824,0.357,0.914,0.8,0.945,0.632,
HCC-827,0.198,0.189,0.201,0.196,0.188,0.898,0.924,0.911,0.98,0.946,0.212,0.288,0.38,0.3,0.265,0.253,0.251,0.268,0.235,0.237
LCLC-103H,,,,,,1.05,1.06,1.04,0.947,0.836,0.498,0.409,0.439,0.424,0.339,0.542,0.437,0.437,0.49,0.464
NCI-H1975,0.97,0.855,0.867,0.891,0.518,0.984,0.96,0.93,0.943,0.583,0.355,0.395,0.345,0.386,0.304,0.292,0.312,0.291,0.236,0.265
NCI-H1944,1.1,0.904,0.773,1.1,0.898,1.06,1.08,1.22,1.14,1.07,0.243,0.237,0.193,0.215,0.242,0.626,0.596,0.591,0.499,0.663
NCI-H441,,,,,,,0.866,0.773,0.872,0.549,0.526,0.678,0.679,0.541,0.507,0.289,0.252,0.296,0.254,0.255
SK-LU-1,0.675,0.918,1.05,1.07,0.62,1.03,0.849,0.801,0.979,0.698,0.196,0.172,0.19,0.18,0.178,1.12,0.995,1.13,0.597,0.942
A-427,1.12,0.962,0.994,1.15,1.08,0.749,0.95,0.942,0.963,0.646,0.788,0.585,0.715,0.696,0.457,1.06,0.929,1.07,0.952,1.07
COR-L23,1.13,1.1,1.12,0.921,0.638,0.503,0.758,0.608,0.649,0.419,0.383,0.341,0.457,0.59,0.403,0.198,0.199,0.203,0.203,0.21

# — the supplement of paper PMC10307832
